Like-named read-outs stand apart in the source and are kept apart here.
Tests used:
[1] = cited from earlier work
[2] = system: Caco-2 monolayers; test: Caco-2 monolayer drug transport assay; conditions: Fig. 6; 2 h; LC-MS
[3] = system: Caco-2 monolayers
[4] = system: Caco-2 monolayers; conditions: standard Caco-2 assay on collagen type-I; cited from earlier work

Row | SMILES | in vivo absorption [1] [%] | Papp for cells on eECM with decreased CBD and decreased stiffness compared to cells grown on collagen [2] | Papp for cells on eECM with decreased CBD and decreased stiffness compared to cells grown on collagen [3] | absorption predicted by the Caco-2 assay [4]
1 | C[C@@H]1C[C@H]2[C@@H]3CCC4=CC(=O)C=C[C@]4(C)[C@@]3(F)[C@@H](O)C[C@]2(C)[C@@]1(O)C(=O)CO [dexamethasone] | > 85 | – | – | –
2 | NC(N)=Nc1nc(CSCCC(N)=NS(N)(=O)=O)cs1 [famotidine] | 35 | – | – | –
3 | CC(C)(C)NCC(O)COc1cccc2c1CC(O)C(O)C2 (stereo not shown) [nadolol] | 45 | significantly higher | – | –
4 | CNC(=C[N+](=O)[O-])NCCSCc1ccc(CN(C)C)o1 [ranitidine] | 51 | – | significantly higher | little to no absorption
